One experiment deals with T1, NEP (Rattus norvegicus, UniProt P07861).
T1 construct: evaluated in rat kidney cortex membranes; from tissue; host or cells: kidney cortex membranes of male Sprague-Dawley rats
T1 sequence (P07861 1-750): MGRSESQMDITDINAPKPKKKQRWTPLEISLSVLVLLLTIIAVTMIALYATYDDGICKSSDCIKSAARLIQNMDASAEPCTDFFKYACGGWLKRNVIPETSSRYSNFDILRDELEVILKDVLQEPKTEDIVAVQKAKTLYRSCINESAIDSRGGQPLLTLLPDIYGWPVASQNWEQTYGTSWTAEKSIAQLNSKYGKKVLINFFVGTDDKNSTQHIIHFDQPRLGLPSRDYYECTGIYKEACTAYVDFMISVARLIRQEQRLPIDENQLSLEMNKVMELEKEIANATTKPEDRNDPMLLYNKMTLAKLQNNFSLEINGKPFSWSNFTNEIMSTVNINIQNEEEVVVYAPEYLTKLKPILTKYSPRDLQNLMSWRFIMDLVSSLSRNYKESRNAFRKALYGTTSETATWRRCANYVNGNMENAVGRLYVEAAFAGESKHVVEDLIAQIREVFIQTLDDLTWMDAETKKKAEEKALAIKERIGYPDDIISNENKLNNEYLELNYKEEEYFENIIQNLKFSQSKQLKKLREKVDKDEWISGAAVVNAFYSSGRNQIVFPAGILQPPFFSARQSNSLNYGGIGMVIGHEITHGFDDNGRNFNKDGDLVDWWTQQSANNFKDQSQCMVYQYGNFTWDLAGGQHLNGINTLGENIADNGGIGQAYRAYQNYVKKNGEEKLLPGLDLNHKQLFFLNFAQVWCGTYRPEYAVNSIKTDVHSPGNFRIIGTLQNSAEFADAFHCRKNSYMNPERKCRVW
In words: NEP-inhibitory activity in rat kidney cortex membranes, [3H][Leu5]-enkephaline substrate. The experiment is classed as biochemical. Conditions: [3H][Leu5]-enkephaline 15 nM, 20 minutes at 30° C., pH 7.4, compounds of formula I tested as lithium salts. The method, then:
a) NEP-inhibitory activity
The NEP-inhibitory activity was evaluated in rat kidney cortex membranes prepared according to the procedure described by T. Maeda et al. in Biochim biophys. Acta 1983, 731 (1), 115-120.
By working at 0°-4° C. kidneys were removed from male Sprague-Dawley rats weighing approximately 300 g.
Kidney cortex was carefully dissected, finely minced and suspended in a homogenization buffer (10 mM sodium phosphate pH 7.4 containing 1 mM MgCl2, 30 mM NaCl, 0.02% NaN3) 1:15 weight/volume.
The tissue was then homogenized for 30 seconds by using an Ultra-Turrax homogenizer.
Approximately 10 ml of homogenate were layered over 10 ml of sucrose (41% weight/volume) and centrifuged at 31200 rpm for 30 minutes at 4° C. in a fixed angle rotor.
The membranes were collected from the buffer/sucrose interface, washed twice with 50 mM TRIS/HCl buffer (pH 7.4) and resuspended into the same buffer for storage.
The membranes were stored in small aliquots at -80° C. until use.
The NEP-inhibitory activity was evaluated according to the method described by C. Llorens et al., in Eur. I. Pharmacol., 69, (1981), 113-116, as reported hereinafter.
Aliquots of the membrane suspension prepared as above described (concentration 5 μg/ml of proteins) were preincubated in the presence of an aminopeptidase inhibitor (Bestatin--1 mM) for 10 minutes at 30° C.
[^3 H][Leu^5 ]-enkephaline (15 nM) and buffer TRIS/HCl pH 7.4 (50 mM) were added in order to obtain a final volume of 100 μl.
Incubation (20 minutes at 30° C.) was stopped by adding HCl 0.1 M (100 μl).
The formation of the metabolite [^3 H]Tyr-Gly-Gly was quantified, after separation of the unreacted substrate by chromatography on polystirene columns (Porapak Q), by measuring the relative radioactivity through liquid scintillation.
The percentage of inhibition of the metabolite formation in the membrane preparations treated with the compounds of formula I and with the comparative compounds with respect to the untreated membrane preparations was expressed as IC50 (nM) value.
(§1) The compounds of formula I were tested in the form of lithium salts.

The target in the next experiment is T2, ACE (Oryctolagus cuniculus, UniProt P12822).
T2 construct: purchased SIGMA; host or cells: rabbit lung
T2 sequence (P12822 34-1310): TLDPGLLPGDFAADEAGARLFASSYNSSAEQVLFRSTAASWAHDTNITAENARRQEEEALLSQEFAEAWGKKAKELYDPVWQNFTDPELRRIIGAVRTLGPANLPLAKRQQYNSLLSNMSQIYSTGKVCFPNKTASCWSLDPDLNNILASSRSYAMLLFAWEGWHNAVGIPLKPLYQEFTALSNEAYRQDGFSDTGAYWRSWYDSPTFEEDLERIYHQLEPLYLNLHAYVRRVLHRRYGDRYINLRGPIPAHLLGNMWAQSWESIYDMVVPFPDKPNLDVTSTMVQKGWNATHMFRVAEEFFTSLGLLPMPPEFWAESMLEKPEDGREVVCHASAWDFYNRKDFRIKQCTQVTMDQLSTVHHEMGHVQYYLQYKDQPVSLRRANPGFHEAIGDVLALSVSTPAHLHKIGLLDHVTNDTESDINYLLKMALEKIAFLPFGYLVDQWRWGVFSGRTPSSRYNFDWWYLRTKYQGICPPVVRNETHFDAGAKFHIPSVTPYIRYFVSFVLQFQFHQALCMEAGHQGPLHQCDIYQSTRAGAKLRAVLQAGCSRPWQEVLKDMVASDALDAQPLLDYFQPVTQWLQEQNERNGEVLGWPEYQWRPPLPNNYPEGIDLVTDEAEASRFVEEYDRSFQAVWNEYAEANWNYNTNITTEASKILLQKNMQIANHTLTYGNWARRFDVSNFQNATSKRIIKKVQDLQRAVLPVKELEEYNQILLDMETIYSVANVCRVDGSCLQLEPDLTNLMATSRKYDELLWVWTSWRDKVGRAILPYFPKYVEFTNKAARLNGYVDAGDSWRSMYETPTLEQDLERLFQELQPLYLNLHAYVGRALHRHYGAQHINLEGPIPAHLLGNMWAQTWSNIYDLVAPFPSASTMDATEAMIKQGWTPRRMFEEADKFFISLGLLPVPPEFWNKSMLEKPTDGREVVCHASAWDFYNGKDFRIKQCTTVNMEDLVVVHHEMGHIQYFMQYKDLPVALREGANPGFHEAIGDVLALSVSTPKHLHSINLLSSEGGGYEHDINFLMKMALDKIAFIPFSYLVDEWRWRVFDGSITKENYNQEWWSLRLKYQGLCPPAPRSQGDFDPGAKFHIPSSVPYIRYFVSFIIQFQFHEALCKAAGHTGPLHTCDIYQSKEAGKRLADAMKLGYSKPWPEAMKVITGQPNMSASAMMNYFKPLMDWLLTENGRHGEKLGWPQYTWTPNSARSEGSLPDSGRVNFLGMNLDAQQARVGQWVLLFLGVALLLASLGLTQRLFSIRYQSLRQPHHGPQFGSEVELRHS
In words: ACE-inhibitory activity, FAPGG substrate, absorbance at 340 nm. The experiment is classed as biochemical. Conditions: ACE purified by lung rabbit; FAPGG 0.8 mM; 37° C.; compounds of formula I tested as lithium salts. The method, then: b) ACE-inhibitory activity
50 μM of ACE (250 mU/ml purified by lung rabbit, EC 3.4.15.1 SIGMA) were preincubated with 50 μl of the compound of formula I or of the comparison compound in thermostated cuvettes at 37° C.
The reaction was started by adding furylacryloylphenylalanylglycylglycine 0.8 mM (FAPGG-SIGMA).
Contemporaneously, by using a Beckman DU-50 spectrophotometer provided with a program for calculating delta A/minutes and regression coefficients of the enzyme kinetics curves, the absorbance at 340 10^-9 m was recorded in continuo for 5 minutes.
The percentage of enzyme inhibition in the preparations treated with the compounds of formula I or with the comparison compounds with respect to the untreated preparations was expressed as IC50 (nM) value.
as §1

The structures appear in SMILES notation.

For `O=C(NCP(=O)(O)CC(Cc1cccs1)C(=O)N[C@@H](Cc1ccc(-c2ccccc2)cc1)C(=O)O)OCc1ccccc1` (stereo partly drawn) [Compound 4, N-[3-[(benzyloxycarbonylaminomethyl)(hydroxy)phosphinyl]-2-(2-thienylmethyl)propionyl]-(1,1'-biphenyl-4-yl)-L-alanine], the IC50 was 335 nM on NEP and 12 nM at ACE.

Turning to `CC(C)CC(CP(=O)(O)CNC(=O)OCc1ccccc1)C(=O)N[C@@H](Cc1ccc(-c2ccccc2)cc1)C(=O)O` (stereo partly drawn) [Compound 2, N-[3-[(benzyloxycarbonylaminomethyl)(hydroxy)phosphinyl]-2-isobutyl-propionyl]-(1,1'-biphenyl-4-yl)-L-alanine], the IC50 on NEP is 36 nM; at ACE, 6.4 nM.

Turning to `CC(C)CC(CP(=O)(O)CNC(=O)OCc1ccccc1)C(=O)N[C@@H](Cc1ccc(-c2nccs2)cc1)C(=O)O` (stereo partly drawn) [Compound 5, N-[3-[(benzyloxycarbonylaminomethyl)(hydroxy)phosphinyl]-2-isobutyl-propionyl]-[4-(2-thiazolyl)-phenyl]-L-alanine], the results for the IC50 at NEP and at ACE were 48.5 nM and 25 nM, respectively.

For the compound `C[C@H](CS)C(=O)N1CCC[C@H]1C(=O)O` [Captopril, reference compound], the “NEP-inhibitory activity IC50 (nM)” value on NEP is “not active”.

`COCCOCC(CC1(C(=O)N[C@H]2CC[C@@H](C(=O)O)CC2)CCCC1)C(=O)O` (relative stereo) [Candoxatrilat, 3-[1-[(Cis-4-carboxycyclohexyl)carbamoyl]cyclopentyl]-2-(2-methoxyethoxymethyl)-propionic acid, reference compound]: on NEP, the IC50 was 160 nM. Besides, on ACE, the “ACE-inhibitory activity IC50 (nM)” value is on record as “not active”.

For `O=C(NCP(=O)(O)CC(Cc1ccccc1)C(=O)N[C@@H](Cc1ccc(-c2ccccc2)cc1)C(=O)O)OCc1ccccc1` (stereo partly drawn) [Compound 3, N-[3-[(benzyloxycarbonylaminomethyl)(hydroxy)phosphinyl]-2-benzyl-propionyl]-(1,1'-biphenyl-4-yl)-L-alanine], the IC50 on NEP was found to be 252 nM; on ACE, 30 nM.

A word on the IC50: it is the concentration that inhibits the measured activity by half.
